Key:
[1] = target: T1, catalytic domain (JH1) of JAK2 protein (Homo sapiens, UniProt O60674); assay: JAK2 (JH1) Enzymatic Assay at ATP=Km (30 μM), TR-FRET; assay type: biochemical; conditions: 30 μM ATP (=Km), 60 min at 25° C., read-out: V617F ENZ 30 μM
T1 construct: phosphorylated on the tyrosine residue by catalytic domain (JH1) of JAK2 protein; purchased BPS 40450
Description: Example A. JAK2 (JH1) Enzymatic Assay at ATP=Km (30 μM)
Inhibitor potency was determined in TR-FRET assay, which measures HTRF signal generated as a result of Eu-labeled anti-phosphotyrosine antibody binding to Biotin-labeled peptide, phosphorylated on the tyrosine residue by catalytic domain (JH1) of JAK2 protein in the presence of ATP-Mg and Allophycocyanin-streptavidin (APC-SA). JH1 domain of JAK2 protein was purchased from BPS (#40450), Eu-W1204-labeled Anti-Phosphotyrosine Antibody (PY-20) and SureLight Allophycocyanin-streptavidin were purchased from PerkinElmer (#AD0067 and #AD0201). Peptide Biot-EQEDEPEGDYFEWLEES-amide (SEQ ID NO.: 1) was purchased from Quality Controlled Biochemicals, MA (Q307-166). Assay buffer consisted of 50 mM Tris, pH=7.5, 10 mM MgCl2, 0.01% Brij-35, 0.1% BSA, 1 mM EGTA, 5% Glycerol and 5 mM DTT. To assess the inhibition of the enzymatic activity, compound was serially diluted in DMSO and a volume of 0.1 μL was transferred to the wells of a black regular volume 384-well plate (Greiner #781076) using Echo Liquid Handler (Labcyte Inc.). Positive and Negative control wells contained 0.1 μL of DMSO.
Enzyme (catalytic domain JH1 of JAK2) was diluted in assay buffer, and the Multidrop Combi liquid handler (Thermo Scientific) was used to dispense 10 μL to each well (except positive control wells, to which 10 μL of assay buffer were dispensed instead of protein).
Plate was centrifuged and reaction was started by addition of 10 μL of substrate solution containing biotinylated peptide and ATP to all wells. Plate was again centrifuged and enzymatic reaction was allowed to proceed for 60 min. at 25° C. Final concentrations in the assay were as follows: 0.02 nM protein, 30 uM ATP, 0.5 uM biotinylated peptide. Reaction was stopped by addition of 10 μL of solution, containing 45 mM EDTA, 144 nM APC/225 nM Streptavidin, and 4.5 nM Eu-Ab in detection buffer: 50 mM Tris, pH=7.8, 150 mM NaCl, 0.5 mg/ml BSA.
Plate was centrifuged and incubated for 30 min. at room temperature. HTRF signal was measured on PHERAstar plate reader instrument (BMG Labtech) with excitation at 337 nm and emissions at 620 nm and 665 nm. Data analysis tools integrated in Genedata Screener software were used to analyze the results. Raw data was normalized to percent of vehicle (DMSO) Negative control, after subtracting no-enzyme Positive inhibitor control. The IC50 values were derived by fitting the data to a four parameter logistic equation producing a sigmoidal dose-response curve using the following equation: Y=Bottom+(Top−Bottom)/(1+10^((Log IC50−X)*Hill slope)) where X is the logarithm of inhibitor concentration and Y is the response.

[2] = target: T2, pseudo-kinase domain (JH2) of human V617F mutant JAK2 (Homo sapiens, UniProt O60674, F794H/V617F/W659A/W777A); assay: JAK2 LanthaScreen JH2-V617F Binding Assay; conditions: 50 nM Fluorescent JAK2-JH2 Tracer, 1 hour at 25° C., read-out: JH2 BIND V617F
T2 construct: pseudo-kinase domain (JH2, amino-acids 536-812 with 3 surface mutations W659A, W777A, F794H); purchased BPS Bioscience 79498; host or cells: baculovirus expression system
T2 sequence (O60674 536-812 V617F/W659A/W777A/F794H): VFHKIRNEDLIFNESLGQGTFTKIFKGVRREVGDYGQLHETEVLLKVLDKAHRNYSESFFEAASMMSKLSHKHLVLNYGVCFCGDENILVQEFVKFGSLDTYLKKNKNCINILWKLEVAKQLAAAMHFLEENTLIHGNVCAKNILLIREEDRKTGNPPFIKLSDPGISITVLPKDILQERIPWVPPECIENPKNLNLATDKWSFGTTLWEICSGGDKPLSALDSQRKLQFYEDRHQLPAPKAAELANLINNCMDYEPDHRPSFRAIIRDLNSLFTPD
Description: Example B. JAK2 LanthaScreen JH2-V617F Binding Assay
JAK2 JH2-V617F binding assay utilizes pseudo-kinase domain (JH2, amino-acids 536-812 with 3 surface mutations W659A, W777A, F794H) of human V617F mutant JAK2 expressed as C-terminal His-Avi-tagged, biotinylated protein in a baculovirus expression system (BPS Bioscience, Catalog #79498). The assay was conducted in black 384-well polystyrene plates in a final reaction volume of 20 μL. JAK2 JH2-V617F (0.26 nM) was incubated with compounds (100 nL serially diluted in DMSO) in the presence of 50 nM Fluorescent JAK2-JH2 Tracer (MedChem Express Catalog #HY-102055) and 0.25 nM Streptavidin-Tb cryptate (Cisbio Part #610SATLB) in assay buffer (50 mM Tris, pH=7.5, 10 mM MgCl2, 0.01% Brij-35, 0.1% BSA, 1 mM EGTA, 5% Glycerol and 5 mM DTT). Non-specific binding was accessed in the presence of 2 mM ATP. After incubation for 1 hour at 25° C., LanthaScreen signals were read on a PHERAstar FS plate reader (BMG LABTECH). Data was analyzed with IDBS XLfit and GraphPad Prism 5.0 software using a four parameter dose response curve to determine IC50 for each compound.

T1 sequence (O60674 849-1124 limits assumed): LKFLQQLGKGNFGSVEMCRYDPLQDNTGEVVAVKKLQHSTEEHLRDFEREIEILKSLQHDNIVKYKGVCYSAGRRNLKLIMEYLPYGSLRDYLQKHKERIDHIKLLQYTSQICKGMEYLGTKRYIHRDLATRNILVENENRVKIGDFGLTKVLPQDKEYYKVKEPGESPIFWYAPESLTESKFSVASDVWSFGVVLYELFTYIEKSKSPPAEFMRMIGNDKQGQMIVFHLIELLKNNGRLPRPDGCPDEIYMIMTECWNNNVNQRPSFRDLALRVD

COc1c(-c2cnn(C3CN(Cc4cccc(C(=O)N(C)C)n4)C3)c2)cccc1-c1cnc(N)c2cnc(NC(=O)C3CC3)cc12 [Example 16, 6-((3-(4-(3-(1-Amino-6-(cyclopropanecarboxamido)-2,7-naphthyridin-4-yl)-2-methoxyphenyl)-1H-pyrazol-1-yl)azetidin-1-yl)methyl)-N,N-dimethylpicolinamide]
IC50 [1]: 10 to 100 nM
IC50 [2]: ≤ 10 nM

COc1c(-c2cnn(C3CN(Cc4cccc(C(=O)N(C)CC(F)(F)F)n4)C3)c2)cccc1-c1cnc(N)c2cnc(NC(=O)C3CC3)cc12 [Example 17, 6-((3-(4-(3-(1-Amino-6-(cyclopropane-carboxamido)-2,7-naphthyridin-4-yl)-2-methoxyphenyl)-1H-pyrazol-1-yl)azetidin-1-yl)methyl)-N-methyl-N-(2,2,2-trifluoroethyl) picolinamide]
IC50 [1]: 10 to 100 nM
IC50 [2]: ≤ 10 nM

COc1c(-c2cnn(C3CN(Cc4cccc(C(=O)N5CCCC5)n4)C3)c2)cccc1-c1cnc(N)c2cnc(NC(=O)C3CC3)cc12 [Example 18, N-(8-Amino-5-(2-methoxy-3-(1-(1-((6-(pyrrolidine-1-carbonyl)pyridin-2-yl)methyl)azetidin-3-yl)-1H-pyrazol-4-yl)phenyl)-2,7-naphthyridin-3-yl)cyclopropane-carboxamide]
IC50 [1]: 10 to 100 nM
IC50 [2]: ≤ 10 nM

COc1c(-c2cnn(C3CN(Cc4cccc(C(=O)N5CCC(F)(F)C5)n4)C3)c2)cccc1-c1cnc(N)c2cnc(NC(=O)C3CC3)cc12 [Example 19, N-(8-amino-5-(3-(1-(1-((6-(3,3-difluoro-pyrrolidine-1-carbonyl)pyridin-2-yl)methyl)azetidin-3-yl)-1H-pyrazol-4-yl)-2-methoxy-phenyl)-2,7-naphthyridin-3-yl)cyclopropane-carboxamide]
IC50 [1]: 10 to 100 nM
IC50 [2]: ≤ 10 nM

COc1c(-c2cnn(C3CN(Cc4cccc(C(=O)N5CCOCC5)n4)C3)c2)cccc1-c1cnc(N)c2cnc(NC(=O)C3CC3)cc12 [Example 20, N-(8-amino-5-(2-methoxy-3-(1-(1-((6-(morpholine-4-carbonyl)pyridin-2-yl)methyl)azetidin-3-yl)-1H-pyrazol-4-yl)phenyl)-2,7-naphthyridin-3-yl)cyclopropane-carboxamide]
IC50 [1]: 100 to 500 nM
IC50 [2]: ≤ 10 nM

COc1c(-c2cnn(C3CN(Cc4ccccn4)C3)c2)cccc1-c1cnc(N)c2cnc(NC(=O)C3CC3)cc12 [Example 21, N-(8-Amino-5-(2-methoxy-3-(1-(1-(pyridin-2-ylmethyl)azetidin-3-yl)-1H-pyrazol-4-yl)phenyl)-2,7-naphthyridin-3-yl)cyclopropanecarboxamide]
IC50 [1]: 100 to 500 nM
IC50 [2]: ≤ 10 nM

COC(=O)c1cccc(CN2CC(n3cc(-c4cccc(-c5cnc(NC(C)=O)c6cnc(NC(=O)C7CC7)cc56)c4OC)cn3)C2)n1 [Example 22, Methyl 6-((3-(4-(3-(1-acetamido-6-(cyclopropanecarboxamido)-2,7-naphthyridin-4-yl)-2-methoxyphenyl)-1H-pyrazol-1-yl)azetidin-1-yl)methyl)picolinate]
IC50 [1]: > 1000 nM
IC50 [2]: ≤ 10 nM

CNc1ncc(-c2cccc(-c3ccc(C(=O)N(C)Cc4ccccn4)nc3)c2OC)c2cc(NC(=O)C3CC3)ncc12 [Example 23, 5-(3-(6-(Cyclopropanecarboxamido)-1-(methylamino)-2,7-naphthyridin-4-yl)-2-methoxyphenyl)-N-methyl-N-(pyridin-2-ylmethyl)picolinamide]
IC50 [1]: > 1000 nM
IC50 [2]: 10 to 100 nM

CNc1ncc(-c2cccc(-c3cnn(C4CN(CC56CCCC(C(=O)N(C)C)(C5)C6)C4)c3)c2OC)c2cc(NC(=O)C3CC3)ncc12 [Example 24, 5-((3-(4-(3-(6-(Cyclopropanecarboxamido)-1-(methylamino)-2,7-naphthyridin-4-yl)-2-methoxyphenyl)-1H-pyrazol-1-yl)azetidin-1-yl)methyl)-N,N-dimethylbicyclo[3.1.1]heptane-1-carboxamide]
IC50 [1]: > 1000 nM
IC50 [2]: 10 to 100 nM

Reference: US20250163059A1, “HETEROCYCLIC KINASE INHIBITORS” (Incyte Corporation, priority 2023, published 2025)
